Where a name gives a salt, the structure may show the parent alone.
Tests used:
[1] = Pyloric ligation-induced ulcer (Shay ulcer) in rats; type: in vivo, Wistar rats (male); details: Table 2, 50 mg/kg i.d.
Description: Male Wistar rats (body weights, 180-200 g) were used in groups of 7 animals. After 48-hour fasting, laparotomy was performed under ether anesthesia and the pylorus was ligated with a suture. After 13 hours, the stomach was isolated under ether anesthesia and gastric juice was collected. The gastric juice was centrifuged at 3,000 r.p.m. for 10 minutes and the volume and pH value of gastric juice were determined. The pH value was determined by using pH paper. After collection of gastric juice, a 10% aqueous solution of formaldehyde was infused into the stomach until the stomach was inflated. Then, the stomach was immersed in a 10% aqueous solution of formaldehyde for 10 minutes for fixation of the tissue. After fixation, an incision was made along the greater curvature for observing ulcers which had developed in the glandular portion of the stomach. The degree of ulcer was classified according to the following ulcer index scale.
2: 1-5 small ulcers (<3 mm in diameter)
3: Six or more small ulcers or one large ulcer (>3 mm in diameter)
4: Two or more large ulcers
Each test compound was administered, as suspended in a gum arabic solution in concentration of 5%, into the duodenum immediately after pyloric ligation.

[2] = Stress ulcer (water immersion stress) in mice; type: in vivo, mice (ddK strain, male); details: Table 1, 25 mg/kg p.o.
Description: Male mice of ddK strain (body weights, 18-20 g) were placed in a stress cage in groups of 6 animals and immersed down to the level of the xiphoid process in a water bath at 22±1° C. to give a stress. Five hours later the mice were raised from the water bath and the stomach was removed under ether anesthesia. Into the stomach was infused 1.2 ml of a 10% aqueous solution of formaldehyde and, then, the stomach was immersed in a 10% aqueous solution of formaldehyde for 10 minutes for fixation of the tissue. After fixation, an incision was made along the greater curvature for observing ulcers which had appeared in the glandular portion of the stomach. The degree of ulceration was classified according to the following ulcer index scale and the % inhibition of ulcer was estimated.
2: Hemorrhage and erosion
3: Severe hemorrhage and erosion
Each test compound was orally administered, as suspended in a gum arabic solution in concentration of 5%, to mice 10 minutes before stress loading.

[3] = Acute toxicity in mice, oral; parameters: species or system ddK strain); details: mouse, in vivo, male ddK mice, 10 animals per group
Description: The 3,4-dihydrobenzopyran compound [I] has been confirmed to be low in toxicity. […] The corresponding values of Compounds (2) to (11) were respectively more than 2,000 mg/kg, and those of compounds (12) to (36) were all more than 3,500 mg/kg.

[4] = Hydrochloric acid-ethanol-induced ulcer in rats; type: in vivo, Wistar rats (male)
Description: Male Wistar rats (body weights, 170-210 g) were used in groups of 6 to 8 animals. Indomethacin, 20 mg/kg body weight, was injected subcutaneously to rats which had been deprived of food for 24 hours. After 7 hours, the stomach was excised under ether anesthesia. A 10% aqueous solution of formaldehyde was infused into the stomach until the stomach was inflated and, then, the stomach was immersed in a 10% aqueous solution of formaldehyde for 10 minutes for fixation of the tissue. After fixation, an incision was made along the greater curvature and the length of ulcers occurring in the glandular portion of the stomach was measured. The total length of ulcers occurring in a rat was taken as an ulcer index. Each test compound was orally administered, as suspended in a gum arabic solution in concentration of 5%, to rats 10 minutes before subcutaneous injection of indomethacin. Male Wistar rats (body weights, 160-190 g) were used in groups of 6 to 8 animals. One milliliter of a 60% aqueous solution of ethanol containing 150 mM hydrochloric acid was administered orally to rats which had been deprived of food for 24 hours. After one hour, the stomach was excised under ether anesthesia. In a manner similar to that described in study for indomethacin-induced ulcer, the ulcer index was determined. Each test compound was orally administered, as suspended in a gum arabic solution in concentration of 5%, to rats 1 hour before administration of hydrochloric acid-ethanol.

[5] = Indomethacin-induced ulcer in rats; type: in vivo, Wistar rats (male); details: Table 3, 50 mg/kg p.o.
Description: Male Wistar rats (body weights, 170-210 g) were used in groups of 6 to 8 animals. Indomethacin, 20 mg/kg body weight, was injected subcutaneously to rats which had been deprived of food for 24 hours. After 7 hours, the stomach was excised under ether anesthesia. A 10% aqueous solution of formaldehyde was infused into the stomach until the stomach was inflated and, then, the stomach was immersed in a 10% aqueous solution of formaldehyde for 10 minutes for fixation of the tissue. After fixation, an incision was made along the greater curvature and the length of ulcers occurring in the glandular portion of the stomach was measured. The total length of ulcers occurring in a rat was taken as an ulcer index. Each test compound was orally administered, as suspended in a gum arabic solution in concentration of 5%, to rats 10 minutes before subcutaneous injection of indomethacin. The doses of test compounds and the ulcer indices for treated and untreated rats are shown in Table 3 for purposes of comparison. The % inhibition of ulcer by each test compound as estimated from the ulcer index is also presented in the same table.

[6] = Expectorant action: tracheal secretion of fluorescein sodium in rats; type: in vivo, Wistar rats (male); details: 50 mg/kg oral
Description: Male Wistar rats (body weights, 280-320 g) were used in groups of 7 animals. Each test compound was orally administered in dose of 50 mg/kg body weight to rats. Immediately after administration, 0.3 ml/100 g (body weight of rat) of a 1% aqueous solution of fluorescein sodium was injected into the caudal vein. One hour after administration of the test compound, pentobarbital sodium 100 mg/kg (body weight of rat) was injected intraperitoneally so that deep anesthesia might cause the rat to die. Then, the trachea was exposed and an incision was made in the trachea. A sonde was inserted thereinto and ligation was made. To the sonde was connected a syringe containing 10 ml of a 5% solution of sodium hydrogen carbonate kept at 37° C. and 4 ml of the solution of sodium hydrogen carbonate was injected into the lung. After 5 minutes, the fluid in the lung was removed. After this procedure of injection and removal was repeated three times, the fluid removed from the lung was filtered and the filtrate was made up with water to make 20 ml. The intensity of fluroescence was determined at the excitation wave length of 491 nm and the fluorescence wave length of 510 nm using a spectrophotometer (HITACHI model 650-10, Hitachi, Ltd.). The amount of fluorescein sodium secreted into the trachea was estimated from the intensity of fluorescence. Each test compound was administered as suspended in a gum arabic solution in concentration of 5%.

[7] = Antitussive action: coughing induced by tracheal stimulation in guinea pigs; type: in vivo; details: Cavia porcellus, ip; Table 17; intraperitoneal; up and down method
Description: Pentobarbital sodium 15 mg/kg was injected intraperitoneally to guinea pigs (body weight, 400 g or more) and under slight anesthesia, each guinea pig was immobilized in dorsal position. The skin in the anterior cervical region was incised along the midline and the trachea was exposed so as not to injure the subcutaneous tissue. A small hole was drilled in the anterior aspect of the trachea at a location 1.5 cm distant from the clavicle and through this hole a stimulating hair was inserted over a distance of 3 cm at an angle of 30° from the longitudinal axis of the trachea and, after one second, was pulled out. The stimulation was given 5 and 20 minutes after drilling of the small hole, and after occurrence of coughing was confirmed, each test compound was injected intraperitoneally. At 5 time points, i.e. 15, 30, 60, 90 and 120 minutes after injection, it was checked whether stimulation caused coughing in the same manner as described above. If coughing was not induced, even only once on the five occasions of stimulation, the test compound was regarded as effective, and if cough appeared on all the 5 occasions of stimulation,the test compound was regarded as ineffective. The ED50 value (mg/kg) was determined by the up and down method using 10 guinea pigs [See K. A. Brownlee et al., J. Am. Stat. Assoc. 48, 262 (1953)]. As a stimulating hair, one porcine bristle, about 5 cm long, was used.
After completion of the study, the skin and wound opening of each guinea pig were fully disinfected with acrinol solution and the skin was sutured. Then, the guniea pigs were maintained as usual. The guinea pigs were not vigorous on the day following the test, with body weights decreased, but recovered after one week. After the lapse of 10 days or more, the animals were resubmitted to the test.

SMILES: COc1c(C)c(C)c2c(c1C)CCC(C)(CC(=O)NC(=N)N)O2 (stereo not drawn) [Compound (1), N-(3,4-Dihydro-6-methoxy-2,5,7,8-tetramethyl-2H-benzopyran-2-yl)acetylguanidine]
- pH value of gastric juice ([1]; control 1.77 ± 0.54): 2.07 ± 0.94
- Volume of gastric juice ([1]; control 5.09 ± 0.40): 3.36 ± 0.90 ml/100 g body weight
- Ulcer index (mean ± S.E.) ([1]; scale 0-5, control 3.86 ± 0.40): 2.33 ± 0.42
- % Inhibition of ulcer [2]: 61.98%
- Ulcer index (mean ± S.E.) ([2]; control 2.63 ± 0.18): 1.00 ± 0.63 mm
- LD50 [3]: 3560 mg/kg
- inhibition in vivo at 25 mg/kg ([4]; Rattus norvegicus, po, 1 h, Table 7, 25 mg/kg p.o.): 91.1%
- Ulcer index (mean ± S.E.) ([4]; Table 4, 50 mg/kg p.o., control 7.36 ± 1.23): 0.39 ± 0.19 mm
- % Inhibition of ulcer [5]: 77.80%
- Ulcer index (mean ± S.E.) ([5]; control 10.36 ± 2.07): 2.30 ± 0.58 mm

SMILES: COc1cc(C(=O)N2CCN(CCC3(C)CCc4c(C)c(OC)c(C)c(C)c4O3)CC2)cc(OC)c1OC (stereo not drawn) [Compound (17), 3,4-Dihydro-6-methoxy-2-[2-[4-(3,4,5-trimethoxybenzoyl)piperazin-1-yl]ethyl]-2,5,7,8-tetramethyl-2H-benzopyran]
- Secretory amount (mean ± S.E.) ([6]; Table 13, control 5.30 ± 0.40): 7.90 ± 0.72 μg/100 g (body weight of rat)/
- Secretory amount (mean ± S.E.) ([6]; Table 15, control 5.20 ± 0.78): 9.44 ± 1.14 μg/100 g (body weight of rat)/
- ED50 [7]: 113 mg/kg
- inhibition in vivo at 50 mg/kg ([4]; Rattus norvegicus, po, 1 h, Table 9, 50 mg/kg p.o.): 65.7%
- Ulcer index (mean ± S.E.) ([4]; Table 9, 50 mg/kg p.o., control 7.22 ± 0.36): 2.48 ± 0.68 mm

SMILES: COc1ccc(C(=O)N2CCN(CCC3(C)CCc4c(C)c(OC)c(C)c(C)c4O3)CC2)cc1 (stereo not drawn) [Compound (19), 1-[2-(3,4-Dihydro-6-methoxy-2,5,7,8-tetramethyl-2H-benzopyran-2-yl)ethyl]-4-(4-methoxybenzoyl)piperazine]
- Secretory amount (mean ± S.E.) ([6]; Table 13, control 5.30 ± 0.40): 8.12 ± 0.58 μg/100 g (body weight of rat)/
- ED50 [7]: 50.1 mg/kg

SMILES: CCOC(CN1CCN(CC(C)C(=O)c2ccccc2)CC1)c1ccccc1 (stereo not drawn) [Eprazinone hydrochloride, 3-[4-(β-ethoxyphenethyl)-1-piperadinyl]-2-methylpropiophenone hydrochloride, reference compound]
- Secretory amount (mean ± S.E.) ([6]; Table 13, control 5.30 ± 0.40): 5.26 ± 0.40 μg/100 g (body weight of rat)/
- Secretory amount (mean ± S.E.) ([6]; Table 14, control 1.60 ± 0.18): 2.67 ± 0.18 μg/100 g (body weight of rat)/
- Secretory amount (mean ± S.E.) ([6]; Table 16, control 6.455 ± 0.766): 5.736 ± 0.369 μg/100 g (body weight of rat)/
- ED50 [7]: 122 mg/kg

From patent US4728650A, “3,4-dihydrobenzopyran derivatives and medicinal uses thereof” (Kuraray Co., Ltd., priority 1985, dated 1988)
